For data set [1] the following is noted: 90 minutes. As to the method:
Example nano-suspensions were evaluated for particle size and particle size distribution using dynamic light scattering (DLS, Wyatt, DyanoPro Plate Reader). Results reported for particle size analysis (D50 and D90) have their ordinary meaning as understood in the art of particle-size analysis. Unless otherwise indicated, values for D50 and D90 are reported in nanometers (nm). The APC in example nano-suspensions was evaluated using high performance liquid chromatography (HPLC, Hewlett Packard, Agilent 1100). Residual metals analysis was performed using inductively coupled plasma mass spectroscopy (ICP-MS, Perkin Elmer).
The temperature of each nano-suspension was determined using a thermometer immediately after the milling time was completed. Particle size and metals content were analyzed as described herein. The nano-suspension product produced in each operation was recovered through centrifuge filtration over a 10 micron polypropylene mesh (Nanomill) or through a syringe equipped with a 20-gauge needle (acoustic mixer). In the case of the nano-suspension prepared with acoustic mixing, the YTZ milling media is sufficiently dense that it settles from the nano-suspension and permits separation by decantation without the need for separation through a mesh.

Data set [2] is described as follows: Particle size analysis (D50, D90) of nano-suspensions by dynamic light scattering. The class given is physicochemical. As to conditions: 90 minutes, PVP-K29-32/SDS in water.

The structures appear in SMILES notation. Where two headings read alike, the source gives them in different places. Some results are limits rather than exact numbers.

For the compound `COc1ccc2cc([C@H](C)C(=O)O)ccc2c1` [Naproxen sodium], the “Residual Metals” value in data set [1] (Elan Nanomill high-shear milling) is recorded as greater than 1000 ppm; in data set [1] (Resodyn LabRAM acoustic mixer), less than 1 ppm. Further, the “Drug nanoparticle diameter (D50)” value amounted to 354 nm in data set [2] (Elan Nanomill high-shear milling, polystyrene milling beads) and 286 nm in data set [2] (Resodyn LabRAM acoustic mixer, YTZ milling beads).

Source of the values: patent publication US9381518B2, “Nano-suspension process” (MERCK SHARP & DOHME CORP., priority 2011, dated 2016).
